Test results taken from patent US10752587B2, “Homobispiperidinyl derivatives as liver X receptor beta agonists, compositions and their use” (Merck Sharp & Dohme Corp., priority 2015, dated 2020).

How the values were obtained:
[1] = molecular target: T1, glutathione-S-transferase (GST) tagged LXRbeta LBD (ligand binding domain) (Homo sapiens, UniProt P55055); assay: LanthaScreen TR-FRET Liver X Receptor Coactivator Assay, co-activator recruitment to LXRbeta LBD; format: biochemical; conditions: for Emax: efficacy at max dose, in relation to reference dual agonist T0901317, read-out: LXR beta Activity @ max dose (%); for EC50: potency (Inflection Point, IP), co-activator recruitment to LXRbeta LBD, in relation to T0901317, read-out: LXR beta IP
T1 construct: purchased Invitrogen pv4658.pps
T1 sequence (P55055 222-460 limits assumed): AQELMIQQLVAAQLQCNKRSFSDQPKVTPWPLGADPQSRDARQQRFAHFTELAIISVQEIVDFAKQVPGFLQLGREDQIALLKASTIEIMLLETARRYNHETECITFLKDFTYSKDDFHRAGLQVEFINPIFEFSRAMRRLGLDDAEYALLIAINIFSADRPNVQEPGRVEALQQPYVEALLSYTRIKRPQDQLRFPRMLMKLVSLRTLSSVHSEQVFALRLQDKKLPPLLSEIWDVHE
Method in brief: (§1)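 Readout is time-resolved FRET between a terbium anti-GST antibody bound to the LBD and a fluorescein-tagged coactivator peptide recruited on ligand binding. Plates were incubated at room temperature before reading. Potency (IP) and efficacy (Emax) are referenced to T0901317.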

[2] = molecular target: T2, glutathione-S-transferase (GST) tagged LXRalpha LBD (ligand binding domain) (Homo sapiens, UniProt Q13133); assay: LanthaScreen TR-FRET Liver X Receptor Coactivator Assay, co-activator recruitment to LXRalpha LBD; format: biochemical; conditions: for Emax: efficacy at max dose, in relation to reference dual agonist T0901317, read-out: LXR alpha Activity @ max dose (%); for EC50 / LXR alpha IP (nM): potency (Inflection Point, IP), co-activator recruitment to LXRalpha LBD, in relation to T0901317; for EC50: read-out: LXR alpha IP
T2 construct: purchased Invitrogen pv4655
T2 sequence (Q13133 209-447 limits assumed): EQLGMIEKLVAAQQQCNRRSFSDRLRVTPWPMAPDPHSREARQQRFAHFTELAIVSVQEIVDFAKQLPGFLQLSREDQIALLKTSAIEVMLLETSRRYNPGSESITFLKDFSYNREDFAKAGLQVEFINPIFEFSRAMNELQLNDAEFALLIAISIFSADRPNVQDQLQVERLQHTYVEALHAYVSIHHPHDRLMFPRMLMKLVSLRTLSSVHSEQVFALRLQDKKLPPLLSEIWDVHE
Method in brief: as §1

O=C(c1ccc(N2CCC(CC3CCN(C(=O)[C@](O)(c4ccccc4)C(F)(F)F)CC3)CC2)cc1Cl)N1CC(F)(F)C1 [Example 4-8, (2R)-3-{4-[(1-{3-chloro-4-[(3,3-difluoroazetidin-1-yl)carbonyl]phenyl}piperidin-4-yl)methyl]piperidin-1-yl}-1,1,1-trifluoro-3-oxo-2-phenylpropan-2-ol]
Emax [1]: 93%
EC50 [1]: 172 nM
Emax [2]: 37%
EC50 [2]: 984 nM

COCCN(C)C(=O)c1ccc(N2CCC(CC3CCN(C(=O)[C@](O)(c4ccccc4)C(F)(F)F)CC3)CC2)cc1Cl [Example 4-9]
Emax [1]: 69%
EC50 [1]: 17 nM
Emax [2]: 31%
EC50 [2]: 195 nM

CN(Cc1ccon1)C(=O)c1ccc(N2CCC(CC3CCN(C(=O)[C@](O)(c4ccccc4)C(F)(F)F)CC3)CC2)cc1Cl [Example 4-10, 2-chloro-N-(isoxazol-3-ylmethyl)-N-methyl-4-[4-({1-[(2R)-3,3,3-trifluoro-2-hydroxy-2-phenylpropanoyl]piperidin-4-yl}methyl)piperidin-1-yl]benzamide]
Emax [1]: 62%
EC50 [1]: 8 nM
Emax [2]: 30%
EC50 [2]: 246 nM

CN(C(=O)c1ccc(N2CCC(CC3CCN(C(=O)[C@](O)(c4ccccc4)C(F)(F)F)CC3)CC2)cc1Cl)C1CC1 [Example 4-11, 2-chloro-N-cyclopropyl-N-methyl-4-[4-({1-[(2R)-3,3,3-trifluoro-2-hydroxy-2-phenylpropanoyl]piperidin-4-yl}methyl)piperidin-1-yl]benzamide]
Emax [1]: 74%
EC50 [1]: 43 nM
Emax [2]: 38%
EC50 [2]: 402 nM

CCN(C)C(=O)c1ccc(N2CCC(CC3CCN(C(=O)[C@](O)(c4ccccc4)C(F)(F)F)CC3)CC2)cc1Cl [Example 4-12, 2-chloro-N-ethyl-N-methyl-4-[4-({1-[(2R)-3,3,3-trifluoro-2-hydroxy-2-phenylpropanoyl]piperidin-4-yl}methyl)piperidin-1-yl]benzamide]
Emax [1]: 83%
EC50 [1]: 14 nM
Emax [2]: 34%
EC50 [2]: 166 nM

CN(C)CCN(C)C(=O)c1ccc(N2CCC(CC3CCN(C(=O)[C@](O)(c4ccccc4)C(F)(F)F)CC3)CC2)cc1Cl [Example 4-13, 2-chloro-N-[2-(dimethylamino)ethyl]-N-methyl-4-[4-({1-[(2R)-3,3,3-trifluoro-2-hydroxy-2-phenylpropanoyl]piperidin-4-yl}methyl)piperidin-1-yl]benzamide]
Emax [1]: 62%
EC50 [1]: 21 nM
Emax [2]: 30%
EC50 [2]: 678 nM

COCCN(C)C(=O)c1ccc(N2CCC(OC3CCN(C(=O)[C@](O)(c4ccccc4)C(F)(F)F)CC3)CC2)cc1Cl [Example 4-14, 2-chloro-N-(2-methoxyethyl)-N-methyl-4-[4-({1-[(2R)-3,3,3-trifluoro-2-hydroxy-2-phenylpropanoyl]piperidin-4-yl}oxy)piperidin-1-yl]benzamide]
Emax [1]: 88%
EC50 [1]: 117 nM
Emax [2]: 42%
EC50 [2]: 2170 nM

CN(Cc1ccon1)C(=O)c1ccc(N2CCC(OC3CCN(C(=O)[C@](O)(c4ccccc4)C(F)(F)F)CC3)CC2)cc1Cl [Example 4-15, 2-chloro-N-(isoxazol-3-yl-methyl)-N-methyl-4-[4-({1-[(2R)-3,3,3-trifluoro-2-hydroxy-2-phenylpropanoyl]piperidin-4-yl}oxy)piperidin-1-yl]benzamide]
Emax [1]: 87%
EC50 [1]: 38 nM
Emax [2]: 40%
EC50 [2]: 1300 nM

CN(C)CCNC(=O)c1ccc(N2CCC(CC3CCN(C(=O)[C@](O)(c4ccccc4)C(F)(F)F)CC3)CC2)cc1Cl [Example 4-16, 2-chloro-N-[2-(dimethylamino)ethyl]-4-[4-({1-[(2R)-3,3,3-trifluoro-2-hydroxy-2-phenylpropanoyl]piperidin-4-yl}methyl)piperidin-1-yl]benzamide]
Emax [1]: 64%
EC50 [1]: 183 nM
Emax [2]: 28%
EC50 [2]: 688 nM

O=C(c1ccc(N2CCC(CC3CCN(C(=O)[C@](O)(c4ccccc4)C(F)(F)F)CC3)CC2)cc1Cl)N1CCC(c2ccncc2)C1 (stereo partly drawn) [Example 4-17, (2R)-3-{4-[(1-{3-chloro-4-[(3-pyridin-4-ylpyrrolidin-1-yl)carbonyl]phenyl}piperidin-4-yl)methyl]piperidin-1-yl}-1,1,1-trifluoro-3-oxo-2-phenylpropan-2-ol]
Emax [1]: 45%
EC50 [1]: 270 nM
Emax [2]: 27%
EC50 [2]: 1020 nM

O=C(c1ccc(N2CCC(CC3CCN(C(=O)[C@](O)(c4ccccc4)C(F)(F)F)CC3)CC2)cc1Cl)N1CC[C@H](F)C1 [Example 4-18]
Emax [1]: 67%
EC50 [1]: 59 nM
Emax [2]: 39%
EC50 [2]: 485 nM

O=C(c1ccc(N2CCC(CC3CCN(C(=O)[C@](O)(c4ccccc4)C(F)(F)F)CC3)CC2)cc1Cl)N1CCC(n2ccnc2)C1 (stereo partly drawn) [Example 4-19, (2R)-3-(4-{[1-(3-chloro-4-{[3-(1H-imidazol-1-yl)pyrrolidin-1-yl]carbonyl}phenyl)piperidin-4-yl]methyl}piperidin-1-yl)-1,1,1-trifluoro-3-oxo-2-phenylpropan-2-ol]
Emax [1]: 43%
EC50 [1]: 141 nM
Emax [2]: 25%
EC50 [2]: 765 nM

CN(Cc1cncs1)C(=O)c1ccc(N2CCC(CC3CCN(C(=O)[C@](O)(c4ccccc4)C(F)(F)F)CC3)CC2)cc1Cl [Example 4-20, 2-chloro-N-methyl-N-(1,3-thiazol-5-ylmethyl)-4-[4-({1-[(2R)-3,3,3-trifluoro-2-hydroxy-2-phenylpropanoyl]piperidin-4-yl}methyl)piperidin-1-yl]benzamide]
Emax [1]: 63%
EC50 [1]: 95 nM
Emax [2]: 34%
EC50 [2]: 541 nM

O=C(c1ccc(N2CCC(CC3CCN(C(=O)[C@](O)(c4ccccc4)C(F)(F)F)CC3)CC2)cc1Cl)N1[C@H]2CC[C@@H]1CC2 [Example 4-21, (2R)-3-{4-[(1-{4-[(1s,4s)-7-aza-bicyclo[2.2.1]hept-7-ylcarbonyl]-3-chlorophenyl}piperidin-4-yl)methyl]piperidin-1-yl}-1,1,1-trifluoro-3-oxo-2-phenylpropan-2-ol]
Emax [1]: 63%
EC50 [1]: 74 nM
Emax [2]: 25%
EC50 [2]: 457 nM

O=C(c1ccc(N2CCC(CC3CCN(C(=O)[C@](O)(c4cc(Cl)cc(Cl)c4)C(F)(F)F)CC3)CC2)cc1Cl)N1CC[C@@H](O)C1 [Example 4-22, (3R)-1-({2-chloro-4-[4-({1-[(2R)-2-(3,5-dichloro-phenyl)-3,3,3-trifluoro-2-hydroxypropanoyl]piperidin-4-yl}methyl)piperidin-1-yl]phenyl}carbonyl) pyrrolidin-3-ol]
Emax [1]: 38%
EC50 [1]: 35 nM
Emax [2]: 0%
LXR alpha IP (nM) [2]: NO IP

O=C(c1ccc(N2CCC(CC3CCN(C(=O)[C@](O)(c4cc(Cl)cc(Cl)c4)C(F)(F)F)CC3)CC2)cc1Cl)N1CCC[C@@H]1CO [Example 4-23, (2R)-3-(4-{[1-(3-chloro-4-{[(2R)-2-(hydroxymethyl)pyrrolidin-1-yl]carbonyl}phenyl)piperidin-4-yl]methyl}piperidin-1-yl)-2-(3,5-dichlorophenyl)-1,1,1-trifluoro-3-oxopropan-2-ol]
Emax [1]: 30%
EC50 [1]: 51 nM
Emax [2]: 4%
LXR alpha IP (nM) [2]: NO IP

O=C(c1ccc(N2CCC(CC3CCN(C(=O)[C@](O)(c4cc(Cl)cc(Cl)c4)C(F)(F)F)CC3)CC2)cc1Cl)N1CCC[C@H]1CO [Example 4-24, (2R)-3-(4-{[1-(3-chloro-4-{[(2S)-2-(hydroxymethyl)pyrrolidin-1-yl]carbonyl}phenyl)piperidin-4-yl]methyl}piperidin-1-yl)-2-(3,5-dichlorophenyl)-1,1,1-trifluoro-3-oxopropan-2-ol]
Emax [1]: 28%
EC50 [1]: 7 nM
Emax [2]: 0%
LXR alpha IP (nM) [2]: NO IP

CC(C)(C)OC(=O)NC1CN(C(=O)c2ccc(N3CCC(CC4CCN(C(=O)[C@](O)(c5cc(Cl)cc(Cl)c5)C(F)(F)F)CC4)CC3)cc2Cl)C1 [Example 4-25, tert-butyl [1-({2-chloro-4-[4-({1-[(2R)-2-(3,5-dichlorophenyl)-3,3,3-trifluoro-2-hydroxypropanoyl]piperidin-4-yl}methyl)piperidin-1-yl]phenyl}carbonyl)azetidin-3-yl]carbamate]
Emax [1]: 40%
EC50 [1]: 3 nM
Emax [2]: 0%
LXR alpha IP (nM) [2]: NO IP

CN(CCn1cncn1)C(=O)c1ccc(N2CCC(CC3CCN(C(=O)[C@](O)(c4cc(Cl)cc(Cl)c4)C(F)(F)F)CC3)CC2)cc1Cl [Example 4-26, 2-chloro-4-[4-({1-[(2R)-2-(3,5-dichlorophenyl)-3,3,3-trifuoro-2-hydroxypropanoyl]piperidin-4-yl}methyl)piperidin-1-yl]-N-methyl-N-[2-(1H-1,2,4-triazol-1-yl)ethyl]benzamide]
Emax [1]: 67%
EC50 [1]: 4 nM
Emax [2]: 3%
LXR alpha IP (nM) [2]: NO IP
